# Reference: patent publication US12390552B2, “Self-assembling peptide gel formulation and methods of use” (Arch Biosurgery, Inc., priority 2020, dated 2025)
# Entries after “also recorded” stand apart in the source; their conditions may differ.
# What was measured:
# [1] = Gel formation of (RADA)4 solutions mixed with dextran sulfate solution; assay type: physicochemical; settings: 1%-3% solutions mixed with dextran sulfate solution (0.5 and 1%)
# [2] = tested on: stomach and esophagus of pigs (submucosal space); assay: Submucosal cushion/lift and hemostasis in endoscopic resection procedures in a porcine model; assay type: in vivo
# Description: Solutions of (RADA)4 (RADARADARADARADA; SEQ ID NO: 1) in water were prepared. Concentrations of (RADA)4 (SEQ ID NO: 1) were between from 1% and 3% w/v. Methylene blue or indigo carmine dye (0.1 to 0.4%) was added to the solution in some experiments, and excluded from the solution in other experiments.
# Pigs were randomly assigned to control or experimental groups. Animals were anesthetized. Multiple (>20) endoscopic procedures (EMD and ESD) were performed in different areas of the stomach of pigs, including the pylorus, and the esophagus, including the sphincter. In some experiments, polyps had previously been created by applying bands to the mucosa.
# The (RADA)4 (SEQ ID NO: 1) solutions (experimental animals) or saline or ELEVIEW™ (control animals) were administered into the submucosal space through 2.2 mm channel diameter, 230 cm long catheters that have either 25 gauge needle tips or spray tips on the end to form a cushion. In some experiments, catheters having different diameters were used as well as multiple internal channels. The products were delivered from a prefilled syringe or mixed from a kit prior to delivery.
sequence,measurement,setting,value
RADARADARADARADA [(RADA)4],gel formation,[1],formed space occupying gels
same,duration of submucosal lift,"[2]; pig gastric antrum, delivered through 25G endoscopic injection needle",> 2 h
same,use with clips as sealant at post-polypectomy site,"[2]; pig, applied following application of clips",useful in conjunction with clips as a potential sealant
same,hemostasis in actively bleeding lesions,"[2]; pig, applied topically or injected into mucosa near the bleeding site, with or without visualizing agent","provide hemostasis in actively bleeding lesions; also recorded: stopped bleeding promptly, typically within seconds"
same,durability of cushions versus controls,"[2]; pig, compared with ELEVIEW™ and saline",lasting longer than ELEVIEW™ and saline controls
same,bleeding after polyp removal / tissue resection,"[2]; pig, submucosal injection before dissection (prophylactic hemostasis)",no visible bleeding was observed following polyp removal; also recorded: minimal to no bleeding in most lesions was observed
same,time over which the tunnel opening could easily be found after removing and reinserting equipment,"[2]; pig, submucosal tunnel through cushion",typically more than an hour
